# Earlier results as cited in US20240207289A1 (priority 2022, published 2024).
# Biological target: Cannabinoid-2 (CB2R) receptor (Homo sapiens, UniProt P34972)
# Sequence (P34972 whole entry): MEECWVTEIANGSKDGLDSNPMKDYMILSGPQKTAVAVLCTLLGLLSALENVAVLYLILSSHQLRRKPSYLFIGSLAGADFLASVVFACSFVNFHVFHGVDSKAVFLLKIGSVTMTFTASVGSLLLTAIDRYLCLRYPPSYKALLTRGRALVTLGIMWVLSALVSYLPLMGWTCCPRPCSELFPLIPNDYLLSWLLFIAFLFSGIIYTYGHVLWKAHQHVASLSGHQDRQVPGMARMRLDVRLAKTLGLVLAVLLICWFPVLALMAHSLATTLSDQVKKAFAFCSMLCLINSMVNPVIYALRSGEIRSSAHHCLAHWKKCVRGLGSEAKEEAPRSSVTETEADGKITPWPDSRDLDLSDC
structure (smiles),measurement,value
"CCCCCc1cc(O)c2c(c1)OC(C)(C)[C@@H]1CCC(C)=C[C@@H]21 [THC, delta-9-tetrahydrocannabinol]",activity at Cannabinoid-2 receptor,weak partial agonist activity
